Assay [1] concerns VDV gene expression. As to the kind of experiment: Microarray VDV signature expression in pre- and post-treatment biopsies of inflammatory breast cancer patients (Table 3, human IBC Log2FC). It counts as in vivo. The settings on record: 19 inflammatory breast cancer patients, one dose single agent, 21 days post-treatment; published micro-array data (Wedam et al.). The text has this: The log2 ratio intensity values from Agilent WMG microarrays and the Robust Multi-array Average (RMA) normalized intensities (also on the logarithmic scale) from Affymetrix Mouse430.2 microarrays were imported into R as expression sets using the package “Biobase,” and a linear model was fitted to each feature using the functions “lmFit” and “eBayes” in the “limma” package. […] The union of these genes was taken as representative of the VEGF-responsive vasculature. The extent to which this VDV gene expression signature varied in other experiments was determined by fitting a linear model to the microarray data using the “limma” package (as above) and calculating the mean of the t-statistics from gene in the signature according to the method of Falcon and Gentleman (Bioinformatics. 23: 257-258, 2007).
As depicted in Table 3 below, the genes in the VDV signature were ordered by the extent of anti-VEGF response in the human IBC trial. Orthologs between human and mouse were mapped using the Ensembl Biomart, where “Log 2FC” represents the log(2) fold-change of the gene's expression post-Avastin treatment as compared to pre-treatment. The 19 paired patient samples and the murine PNETs were analyzed on Agilent microarrays. […]

The test system of assay [2] is metastatic colorectal carcinoma (CRC). As to the kind of experiment: NO16966 first-line metastatic colorectal cancer trial, PFS and OS, stratified by 22-gene VDV signature. It counts as in vivo, human. As to the method:
Sections from archival tumor samples from patients enrolled in the XELOX treatment arms of NO 16966 were evaluated by a pathologist and high tumor content area macro-dissected for subsequent RNA isolation using the FFPE RNA isolation kit (Roche; 7-10 sections per patient). RNA levels were assessed after cDNA synthesis following standard techniques, with the qPCR protocol on the Fluidigm Biomark platform according to the manufacturer's protocol.
Quantitative histological data from various animal experiments were plotted using Microsoft Excel software. Student's t test was applied to compare data sets of interest and differences with p values <0.05 were considered significant. 103 biopsies out of 1017 patients from the XELOX (capecitabine and oxaliplatin)-containing arm in the NO16966 trial were analyzed for the gene expression of VDV genes. qRT-PCR values were normalized by the housekeeping genes and relative to a universal reference sample to derive delta-delta Ct values. Subsequently, the delta-delta Ct value of each of the 22 VDV genes was mean centered and variance scaled to a Z-score.
For each sample i for which all of the VDV genes were analyzed, a VDV signature score (VDVi) was calculated. The VDVi represents a weighted average of z-scores across the analyzed VDV genes and is given by the algorithm:
[formula] wherein Zg,i is the standardized z-score of the qRT-PCR value for gene g of sample i and n, in this instance, is 22. The VDVi value provides quantitative information regarding the extent to which the expression of a particular set of genes is collectively overexpressed or underexpressed relative to a centered mean.
To compare the clinical outcomes (PFS and OS) between marker and/or treatment subgroups, log-rank tests and Cox regression were used, with median time calculated by the Kaplan-Meier analysis. All statistical tests were two-sided.
To test if VDV gene expression could correlate with clinical outcomes, we analyzed VDV gene expression levels in available pre-treatment archival tumor tissue from 103 patients (biomarker evaluable subpopulation) that were enrolled in the XELOX-containing arms. Due to the limited quality and amount of RNA from these clinical samples, gene expression was analyzed in a previously designed and validated “angiogenesis” Fluidigm qRT-PCR chip (FIG. 8B) that included 4 different housekeeping genes (for gene expression normalization), VEGF (as a control), and 22 representative proximal and distal VDV genes comprising: (i) pan-vascular markers such as CD31, CD34, and VE-CADH as indicators of MVD; (ii) key VEGF pathway components and proxVDV genes, including VEGFR-1, VEGFR-2, VEGFR-3, EPHRINB2, NRPs, ESM1, NID2, COL4a2, and LAMA4a; and (iii) additional VDV genes that are components of endothelial signaling pathways and potential modulators of VDV biology, including DLL-4, NOTCH1, ALK1, and EGFL7 (see FIG. 9A for validation of this compacted 22 VDV gene signature).

The test system is the same in assay [3]. The following applies: whole NO16966 study, Saltz et al. 2008; cited from earlier work.
For assay [4] the test system is unchanged. The following applies: patients with metastatic CRC, Hurwitz et al. 2004; cited from earlier work.
The mark [5] stands for this setting: 103 biomarker evaluable patients, XELOX arms.

Turning to “bevacizumab: recombinant humanized anti-VEGF monoclonal antibody”, the “VDV transcripts post-treatment vs pre-treatment biopsies” value in assay [1] is on record as “clear down regulation”. Moreover, in assay [2] (setting [5]), the “OS HR, addition to chemotherapy” value is on record as 0.45 and the “PFS HR, addition to chemotherapy” value is recorded as 0.59. Further, in assay [2] (VDV high patients), the “OS HR, addition to chemotherapy vs chemotherapy alone” value is recorded as 0.31 and the “PFS HR, addition to chemotherapy vs chemotherapy alone” value is given as 0.36. In assay [2] (VDV low patients), the “OS HR, combination with chemotherapy vs chemotherapy alone” value came to 0.58 and the “PFS HR, combination with chemotherapy vs chemotherapy alone” value is given as 0.88. In assay [3], the “OS differences (secondary endpoint), addition to chemotherapy” value was “did not reach statistical significance” and the “primary endpoint of PFS, addition to chemotherapy” value was “significantly improved”. For the same substance, the “progression free survival (PFS) and overall survival (OS), combination with chemotherapy” value in assay [4] is reported as “increase”.

The values above are taken from patent US10364466B2, “Biological markers for identifying patients for treatment with VEGF antagonists” (Genentech, Inc., priority 2012, dated 2019).
